# According to patent US20250304576A1 (Cancer Research Technology Limited, priority 2022, published 2025):
# Biological target: T1, IKBKB (IKKβ) (Homo sapiens, UniProt O14920)
# T1 construct: purchased Life Technologies (assay performed by the vendor)
# T1 sequence (O14920 1-756): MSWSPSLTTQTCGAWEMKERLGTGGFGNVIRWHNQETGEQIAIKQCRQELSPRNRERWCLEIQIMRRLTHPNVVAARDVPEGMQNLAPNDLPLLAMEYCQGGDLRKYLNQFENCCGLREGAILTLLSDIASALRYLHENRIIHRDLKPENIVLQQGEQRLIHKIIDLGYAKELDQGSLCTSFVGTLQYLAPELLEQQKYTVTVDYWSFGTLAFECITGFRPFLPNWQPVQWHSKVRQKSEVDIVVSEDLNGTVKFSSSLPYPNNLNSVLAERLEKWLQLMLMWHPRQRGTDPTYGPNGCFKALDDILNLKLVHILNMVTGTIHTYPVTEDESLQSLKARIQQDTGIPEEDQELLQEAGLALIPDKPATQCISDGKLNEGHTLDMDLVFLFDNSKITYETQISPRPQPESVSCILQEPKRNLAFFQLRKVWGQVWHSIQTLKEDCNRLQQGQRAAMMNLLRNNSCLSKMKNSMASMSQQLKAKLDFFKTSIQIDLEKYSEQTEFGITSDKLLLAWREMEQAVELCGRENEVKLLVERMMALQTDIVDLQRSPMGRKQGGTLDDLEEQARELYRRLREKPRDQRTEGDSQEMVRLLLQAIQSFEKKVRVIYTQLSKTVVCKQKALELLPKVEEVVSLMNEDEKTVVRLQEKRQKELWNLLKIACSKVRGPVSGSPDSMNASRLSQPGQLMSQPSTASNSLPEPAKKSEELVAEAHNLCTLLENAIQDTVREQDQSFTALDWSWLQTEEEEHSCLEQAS
# Test: Z'-LYTE IKKβ assay (Life Technologies)
# Type: biochemical
# Conditions: not given
# Protocol: IKKα and IKKβ inhibitory activity was determined using three different assays: a dissociation enhanced ligand fluorescent immunoassay (DELFIA) based on the protocol of HTScan™ IKKβ Kinase Assay (Cell Signaling Technology, USA); an Adapta IKKα assay (performed by Life Technologies); a Z′-LYTE™ IKKβ assay (performed by Life Technologies).
# The reaction was performed in low volume NBS, black 384-well plates (Corning model 4514).
# The test compounds were screened in 1% DMSO (final) in the well. For 10 point titrations, 3-fold serial dilutions were conducted from the starting concentration of 50 mM.
# The 2× IKBKB (IKKβ)/Ser/Thr 05 mixture was prepared in 50 mM HEPES pH 7.5, 0.01% BRIJ-35, 10 mM MgCl2, 1 mM EGTA. The final 10 μL Kinase Reaction consisted of 0.62-4 ng IKBKB (IKKβ) and 2 μM Ser/Thr 05 in 50 mM HEPES pH 7.5, 0.01% BRIJ-35, 10 mM MgCl2, 1 mM EGTA.
# 5 μL of 2× Kinase reaction was incubated with 2.5 μL of ATP solution diluted to a 4× working concentration in Kinase Buffer (50 mM HEPES pH 7.5, 0.01% BRIJ-35, 10 mM MgCl2, 1 mM EGTA) in the presence of […] of 100× test compound in 100% DMSO and 2.4 μL of Kinase buffer.
# The resulting kinase reaction was allowed to incubate for 1 hour at room temperature before 5 μL of a 1:64 dilution of Development Reagent B was added and the resulting Development Reaction was incubated for another hour at room temperature. Then the plate was read on a fluorescence plate reader and the data analysed.
# A ratiometric method, which calculated the Emission Ratio of donor emission (i.e. coumarin) to acceptor emission (i.e. fluorescein) after excitation of the donor fluorophore at 400 nm, was used to quantitate reaction progress, as shown in the equation below.
row,IC50,SMILES
1,300 nM,"CN1CCN(Cc2cc3c(-c4ccc5[nH]nc(N)c5c4)ccnc3[nH]2)CC1 [Example 263, 5-(2-((4-Methylpiperazin-1-yl)methyl)-1H-pyrrolo[2,3-b]pyridine-4-yl)-1H-indazol-3-amine]"
2,280 nM,"Nc1n[nH]c2ccc(-c3ccnc4[nH]c(C5CCCCC5)cc34)cc12 [Example 219, 5-(2-Cyclohexyl-1H-pyrrolo[2,3-b]pyridin-4-yl)-1H-indazol-3-amine]"
3,235 nM,"Nc1n[nH]c2ccc(-c3ccnc4[nH]c(CCN5CCCCC5)cc34)cc12 [Example 267, 5-(2-(2-(Piperidin-1-yl)ethyl)-1H-pyrrolo[2,3-b]pyridine-4-yl)-1H-indazol-3-amine]"
4,470 nM,"Nc1n[nH]c2c(C#CC3CC3)cc(-c3ccnc4[nH]ccc34)cc12 [Example 202, 7-(Cyclopropylethynyl)-5-(1H-pyrrolo[2,3-b]pyridin-4-yl)-1H-indazol-3-amine]"
5,245 nM,"CN(C)CCCNCc1cc2c(-c3ccc4[nH]nc(N)c4c3)ccnc2[nH]1 [Example 258, N^1-((4-(3-amino-1H-indazol-5-yl)-1H-pyrrolo[2,3-b]pyridin-2-yl)methyl)-N^3,N^3-dimethylpropane-1,3-diamine]"

# Continued, compound first:
row,SMILES,IC50
1,"Nc1n[nH]c2ccc(-c3ccnc4[nH]c(C5CCOCC5)cc34)cc12 [Example 228, 5-(2-(tetrahydro-2H-pyran-4-yl)-1H-pyrrolo[2,3-b]pyridin-4-yl)-1H-indazol-3-amine]",32 nM
2,"CN1CCCN(Cc2cc3c(-c4ccc5[nH]nc(N)c5c4)ccnc3[nH]2)CC1 [Example 266, 5-(2-((4-Methyl-1,4-diazepan-1-yl)methyl)-1H-pyrrolo[2,3-b]pyridin-4-yl)-1H-indazol-3-amine]",380 nM
3,"Nc1n[nH]c2ccc(-c3ccnc4[nH]c(CC5CCCCC5)cc34)cc12 [Example 221, 5-(2-(Cyclohexylmethyl)-1H-pyrrolo[2,3-b]pyridin-4-yl)-1H-indazol-3-amine]",655 nM
4,"CN1CCN(C(=O)c2cc3c(-c4ccc5[nH]nc(N)c5c4)ccnc3[nH]2)CC1 [Example 243, (4-(3-Amino-1H-indazol-5-yl)-1H-pyrrolo[2,3-b]pyridin-2-yl)(4-methylpiperazin-1-yl)methanone]",630 nM
5,Nc1n[nH]c2ccc(-c3ccnc4[nH]c(CO)cc34)cc12 [Example 224],28 nM
6,"Nc1n[nH]c2ccc(-c3ccnc4[nH]c(CN5CCOCC5)cc34)cc12 [Example 262, 5-(2-(Morpholinomethyl)-1H-pyrrolo[2,3-b]pyridine-4-yl)-1H-indazol-3-amine]",269 nM
7,"Nc1n[nH]c2ccc(-c3ccnc4[nH]c(C5CCCCO5)cc34)cc12 (stereo not drawn) [Example 229, 5-(2-(Tetrahydro-2H-pyran-2-yl)-1H-pyrrolo[2,3-b]pyridin-4-yl)-1H-indazol-3-amine]",225 nM
8,"Nc1n[nH]c2c(C#CCCCN3CCOCC3)cc(-c3ccnc4[nH]ccc34)cc12 [Example 210, 7-(5-Morpholinopent-1-yn-1-yl)-5-(1H-pyrrolo[2,3-b]pyridin-4-yl)-1H-indazol-3-amine]",1030 nM
9,"Nc1n[nH]c2ccc(-c3ccnc4[nH]c(CCC5CCCCC5)cc34)cc12 [Example 222, 5-(2-(2-Cyclohexylethyl)-1H-pyrrolo[2,3-b]pyridin-4-yl)-1H-indazol-3-amine]",268 nM

# Same assay, conditions: Life Technologies assay
row,IC50,SMILES
1,3090 nM,"CC(C)(O)C#Cc1cc(-c2ccnc(N)c2)cc2c(N)n[nH]c12 [Example 140, 4-(3-Amino-5-(2-aminopyridin-4-yl)-1H-indazol-7-yl)-2-methylbut-3-yn-2-ol]"
2,264 nM,"Nc1nccc(-c2ccc3[nH]nc(N)c3c2)c1C#CCCC(=O)N1CCOCC1 [Example 99, 5-(2-Amino-4-(3-amino-1H-indazol-5-yl)pyridine-3-yl)-1-morpholinopent-4-yn-1-one]"
3,545 nM,"Nc1nccc(-c2ccc3[nH]nc(N)c3c2)c1C#CCCCN1CCCCC1 [Example 95, 5-(2-Amino-3-(5-(piperidin-1-yl)pent-1-yn-1-yl)pyridin-4-yl)-1H-indazol-3-amine]"
4,135 nM,"Nc1cc(-c2cc(-c3ccoc3)c3[nH]nc(N)c3c2)ccn1 [Example 129, 5-(2-Aminopyridin-4-yl)-7-(furan-3-yl)-1H-indazol-3-amine]"

# Second part, the compound before the results:
row,SMILES,IC50
1,"Nc1nccc(-c2ccc3[nH]nc(N)c3c2)c1C#CC1CCCCC1 [Example 74, 5-(2-Amino-3-(cyclohexylethynyl)pyridine-4-yl)-1H-indazol-3-amine]",342 nM
2,"CC(C)(C)C#Cc1c(-c2ccc3[nH]nc(N)c3c2)ccnc1N [Example 72, 5-(2-Amino-3-(3,3-dimethylbut-1-yn-1-yl)pyridine-4-yl)-1H-indazol-3-amine]",65 nM
3,"Nc1nccc(-c2ccc3[nH]nc(N)c3c2)c1C#CCCN1CCCCC1 [Example 93, 5-(2-Amino-3-(4-(piperidin-1-yl)but-1-yn-1-yl)pyridin-4-yl)-1H-indazol-3-amine]",254 nM
4,"Nc1nccc(-c2ccc3[nH]nc(N)c3c2)c1C#CC1(O)CCCCC1 [Example 90, 1-((2-Amino-4-(3-amino-1H-indazol-5-yl)pyridine-3-yl)ethynyl)cyclohexan-1-ol]",205 nM
5,"Nc1nccc(-c2ccc3[nH]nc(N)c3c2)c1C#CCCCN1CCOCC1 [Example 96, 5-(2-Amino-3-(5-morpholinopent-1-yn-1-yl)pyridin-4-yl)-1H-indazol-3-amine]",705 nM
6,"CC(C)(N)C#Cc1c(-c2ccc3[nH]nc(N)c3c2)ccnc1N [Example 92, 5-(2-Amino-3-(3-amino-3-methylbut-1-yn-1-yl)pyridin-4-yl)-1H-indazol-3-amine]",87 nM
